“And” between values parts separate entries of the source, which are not always exact repeats. Equal values may be shown once. Inconclusive results and toxic doses are left out.
Test system: P388 leukemia ip, CD2F1 mice, survival T/C
Assay: NCI In Vivo Anticancer Drug Screen. Data for tumor model P388 Leukemia (intraperitoneal) in CD2F1 (CDF1) mice
Conditions: endpoint: median survival time, higher = longer survival
Outline: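 Mice carrying the transplanted tumor received test compound or vehicle. Survival was recorded in each group, and the value is the treated-group measurement divided by that of the vehicle-treated control group.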

[1] = dose: 50.0 mg/kg/injection, schedule: Q01DX009 (ip), vehicle: saline
[2] = dose: 100.0 mg/kg/injection, schedule: Q01DX009 (ip), vehicle: saline
[3] = dose: 200.0 mg/kg/injection, schedule: Q01DX009 (ip), vehicle: saline
[4] = dose: 60.0 mg/kg/injection, schedule: Q01DX005 (ip), vehicle: saline with Tween-80
[5] = dose: 120.0 mg/kg/injection, schedule: Q01DX005 (ip), vehicle: saline with Tween-80
[6] = dose: 240.0 mg/kg/injection, schedule: Q01DX005 (ip), vehicle: saline with Tween-80
[7] = dose: 6.25 mg/kg/injection, schedule: Q04DX002 (ip), vehicle: saline with Tween-80
[8] = dose: 25.0 mg/kg/injection, schedule: Q04DX002 (ip), vehicle: saline with Tween-80
[9] = dose: 50.0 mg/kg/injection, schedule: Q01DX005 (ip), vehicle: Klucel (hydroxypropylcellulose) (HPC)
[10] = dose: 50.0 mg/kg/injection, schedule: Q04DX003 (ip), vehicle: saline
[11] = dose: 100.0 mg/kg/injection, schedule: Q04DX003 (ip), vehicle: saline
[12] = dose: 200.0 mg/kg/injection, schedule: Q04DX003 (ip), vehicle: saline
[13] = dose: 60.0 mg/kg/injection, schedule: Q01DX005 (ip), vehicle: Klucel (hydroxypropylcellulose) (HPC)
[14] = dose: 120.0 mg/kg/injection, schedule: Q01DX005 (ip), vehicle: Klucel (hydroxypropylcellulose) (HPC)
[15] = dose: 240.0 mg/kg/injection, schedule: Q01DX005 (ip), vehicle: Klucel (hydroxypropylcellulose) (HPC)
[16] = dose: 25.0 mg/kg/injection, schedule: Q04DX003 (ip), vehicle: Klucel (hydroxypropylcellulose) (HPC)
[17] = dose: 50.0 mg/kg/injection, schedule: Q04DX003 (ip), vehicle: Klucel (hydroxypropylcellulose) (HPC)
[18] = dose: 100.0 mg/kg/injection, schedule: Q04DX003 (ip), vehicle: Klucel (hydroxypropylcellulose) (HPC)
[19] = dose: 50.0 mg/kg/injection, schedule: Q04DX002 (ip), vehicle: saline with Tween-80

## CCNC(=O)Oc1ccc[nH]c1=O
dose: 25.0 mg/kg/injection, schedule: Q01DX009 (sc), vehicle: water
  T/C: 100 % of control and 103 % of control
[1]
  T/C: 111 % of control and 114 % of control
dose: 50.0 mg/kg/injection, schedule: Q01DX009 (sc), vehicle: water
  T/C: 104 % of control and 109 % of control
[2]
  T/C: 122 % of control
dose: 100.0 mg/kg/injection, schedule: Q01DX009 (sc), vehicle: water
  T/C: 106 % of control and 109 % of control
[3]
  T/C: 118 % of control
dose: 200.0 mg/kg/injection, schedule: Q01DX009 (sc), vehicle: water
  T/C: 108 % of control and 118 % of control
dose: 400.0 mg/kg/injection, schedule: Q01DX009 (ip), vehicle: saline
  T/C: 119 % of control
dose: 400.0 mg/kg/injection, schedule: Q01DX009 (sc), vehicle: water
  T/C: 113 % of control

## CCCCOc1ccc2nc(C)cc(N=[N+]=[N-])c2c1
dose: 30.0 mg/kg/injection, schedule: Q01DX005 (ip), vehicle: saline with Tween-80
  T/C: 94 % of control
[4]
  T/C: 86 % of control and 94 % of control
[5]
  T/C: 97 % of control
[6]
  T/C: 92 % of control

## O=C(O)CC(=O)O.[NH-]CC[NH-].[Pt+2]
[7]
  T/C: 111 % of control
dose: 25.0 mg/kg/injection, schedule: Q01DX009 (ip), vehicle: saline
  T/C: 211 % of control
[8]
  T/C: 158 % of control
[1]
  T/C: 94 % of control

## COc1cc2c(c3c1c(=O)c1cc(F)ccc1n3C)C=CC(C)(C)O2
[9]
  T/C: 103 % of control
dose: 100.0 mg/kg/injection, schedule: Q01DX005 (ip), vehicle: Klucel (hydroxypropylcellulose) (HPC)
  T/C: 100 % of control and 104 % of control
dose: 200.0 mg/kg/injection, schedule: Q01DX005 (ip), vehicle: Klucel (hydroxypropylcellulose) (HPC)
  T/C: 105 % of control and 98 % of control

## CSC1=NSC(c2ccccc2)=C(c2ccccc2)S1
[4]
  T/C: 111 % of control
[5]
  T/C: 122 % of control
[6]
  T/C: 119 % of control

## CCOC(=O)CCCCCCN(/C=C(\C)CN1c2c(nc(N)[nH]c2=O)NCC1CNc1ccc(C(=O)NC(CCC(=O)O)C(=O)O)cc1)C(C)=O (centres undefined)
[10]
  T/C: 97 % of control
[11]
  T/C: 99 % of control
[12]
  T/C: 98 % of control

## CCCCCCCCS(=O)(=O)OCCCCOS(=O)(=O)CCCCCCCC
dose: 31.25 mg/kg/injection, schedule: Q01DX005 (ip), vehicle: Klucel (hydroxypropylcellulose) (HPC)
  T/C: 103 % of control
dose: 62.5 mg/kg/injection, schedule: Q01DX005 (ip), vehicle: Klucel (hydroxypropylcellulose) (HPC)
  T/C: 103 % of control
dose: 125.0 mg/kg/injection, schedule: Q01DX005 (ip), vehicle: Klucel (hydroxypropylcellulose) (HPC)
  T/C: 103 % of control

## CC1(C(=O)O)C2C=CC3(CN(c4ccccc4)C(=O)C31c1ccccc1)O2 (centres undefined)
[13]
  T/C: 89 % of control
[14]
  T/C: 100 % of control
[15]
  T/C: 102 % of control

## CSC1(c2ccccc2NS(=O)(=O)c2ccccc2)SCCS1
[10]
  T/C: 102 % of control
[11]
  T/C: 92 % of control
[12]
  T/C: 89 % of control

## CC(CSc1ccccc1)C(Sc1ccccc1)Sc1ccccc1 (centres undefined)
[1]
  T/C: 102 % of control
[2]
  T/C: 98 % of control
[3]
  T/C: 106 % of control

## CCCCc1c(C(=O)OCC)oc(C(=O)OCC)c(CCCC)c1=O
dose: 12.5 mg/kg/injection, schedule: Q04DX003 (ip), vehicle: Klucel (hydroxypropylcellulose) (HPC)
  T/C: 108 % of control
[16]
  T/C: 104 % of control
[17]
  T/C: 103 % of control
[18]
  T/C: 100 % of control
dose: 200.0 mg/kg/injection, schedule: Q04DX003 (ip), vehicle: Klucel (hydroxypropylcellulose) (HPC)
  T/C: 104 % of control
dose: 400.0 mg/kg/injection, schedule: Q04DX003 (ip), vehicle: Klucel (hydroxypropylcellulose) (HPC)
  T/C: 106 % of control

## O=c1cccc(O)[nH]1
[1]
  T/C: 109 % of control and 94 % of control
[2]
  T/C: 100 % of control and 93 % of control

## Clc1ccc(-c2nc(-c3cc4cc(Cl)ccc4o3)cs2)cc1
dose: 50.0 mg/kg/injection, schedule: Q01DX009 (ip), vehicle: Klucel (hydroxypropylcellulose) (HPC)
  T/C: 100 % of control
dose: 100.0 mg/kg/injection, schedule: Q01DX009 (ip), vehicle: Klucel (hydroxypropylcellulose) (HPC)
  T/C: 100 % of control
dose: 200.0 mg/kg/injection, schedule: Q01DX009 (ip), vehicle: Klucel (hydroxypropylcellulose) (HPC)
  T/C: 104 % of control

## COC1=CC(C)(C)C(=O)S1
[8]
  T/C: 100 % of control
[19]
  T/C: 96 % of control
dose: 100.0 mg/kg/injection, schedule: Q04DX002 (ip), vehicle: saline with Tween-80
  T/C: 100 % of control

## CCN(CC)C(=S)SS(C)(=O)=O
[16]
  T/C: 99 % of control
[17]
  T/C: 107 % of control
[18]
  T/C: 107 % of control

## CCCCCCCCCCC(O)C1CCC(C2CCC(C(O)C(=O)CCCCCCCCCCCC3CC(C)OC3=O)O2)O1 (centres undefined)
dose: 0.35 mg/kg/injection, schedule: Q01DX005 (ip), vehicle: Klucel (hydroxypropylcellulose) (HPC)
  T/C: 107 % of control and 115 % of control
dose: 0.7 mg/kg/injection, schedule: Q01DX005 (ip), vehicle: Klucel (hydroxypropylcellulose) (HPC)
  T/C: 112 % of control and 119 % of control
dose: 1.4 mg/kg/injection, schedule: Q01DX005 (ip), vehicle: Klucel (hydroxypropylcellulose) (HPC)
  T/C: 120 % of control

## O=C(CC(c1ccccc1)C(C(=O)O)c1ccccc1)c1ccccc1 (centres undefined)
dose: 25.0 mg/kg/injection, schedule: Q01DX001 (ip), vehicle: saline with Tween-80
  T/C: 92 % of control
dose: 50.0 mg/kg/injection, schedule: Q01DX001 (ip), vehicle: saline with Tween-80
  T/C: 92 % of control
dose: 100.0 mg/kg/injection, schedule: Q01DX001 (ip), vehicle: saline with Tween-80
  T/C: 87 % of control
dose: 200.0 mg/kg/injection, schedule: Q01DX001 (ip), vehicle: saline with Tween-80
  T/C: 86 % of control

## CC(C)=NOC(=O)Nc1ccc(F)cc1
[13]
  T/C: 93 % of control
[14]
  T/C: 103 % of control
[15]
  T/C: 106 % of control

## Cc1nc(N=C(N)N)nc2ccc3ccccc3c12
dose: 3.13 mg/kg/injection, schedule: Q01DX009 (ip), vehicle: Klucel (hydroxypropylcellulose) (HPC)
  T/C: 95 % of control
dose: 6.25 mg/kg/injection, schedule: Q01DX009 (ip), vehicle: Klucel (hydroxypropylcellulose) (HPC)
  T/C: 104 % of control
dose: 12.5 mg/kg/injection, schedule: Q01DX009 (ip), vehicle: Klucel (hydroxypropylcellulose) (HPC)
  T/C: 93 % of control

## Cc1nn(C(=S)S)c(C)c1N=Nc1ccccc1C(F)(F)F
dose: 3.12 mg/kg/injection, schedule: Q04DX002 (ip), vehicle: saline with Tween-80
  T/C: 99 % of control and 102 % of control
[7]
  T/C: 100 % of control
dose: 12.5 mg/kg/injection, schedule: Q04DX002 (ip), vehicle: saline with Tween-80
  T/C: 108 % of control and 94 % of control
[8]
  T/C: 103 % of control and 86 % of control and 89 % of control
[19]
  T/C: 96 % of control
dose: 200.0 mg/kg/injection, schedule: Q04DX002 (ip), vehicle: saline with Tween-80
  T/C: 89 % of control
dose: 400.0 mg/kg/injection, schedule: Q04DX002 (ip), vehicle: saline with Tween-80
  T/C: 105 % of control

## CCCN=C(c1ccccc1C=O)c1c2ccccc2cn1CCC
dose: 7.5 mg/kg/injection, schedule: Q01DX005 (ip), vehicle: saline + Tween-80 + alcohol
  T/C: 114 % of control
dose: 15.0 mg/kg/injection, schedule: Q01DX005 (ip), vehicle: saline + Tween-80 + alcohol
  T/C: 124 % of control
dose: 30.0 mg/kg/injection, schedule: Q01DX005 (ip), vehicle: saline + Tween-80 + alcohol
  T/C: 119 % of control

## CCOC(=O)C1C(C)=CC2=Nc3ccccc3NC(=O)C2C1c1ccccc1 (centres undefined)
dose: 25.0 mg/kg/injection, schedule: Q01DX005 (ip), vehicle: Klucel (hydroxypropylcellulose) (HPC)
  T/C: 104 % of control
[9]
  T/C: 106 % of control

## CN(C)c1ccc2nc3ccc(=[N+](C)C)c([N+](=O)[O-])c-3sc2c1
dose: 15.0 mg/kg/injection, schedule: Q01DX005 (ip), vehicle: saline
  T/C: 105 % of control
dose: 30.0 mg/kg/injection, schedule: Q01DX005 (ip), vehicle: saline
  T/C: 100 % of control
dose: 50.0 mg/kg/injection, schedule: Q01DX005 (ip), vehicle: saline with Tween-80
  T/C: 116 % of control
dose: 100.0 mg/kg/injection, schedule: Q01DX005 (ip), vehicle: saline with Tween-80
  T/C: 100 % of control

From PubChem BioAssay AID330 (DTP/NCI, 2004)
